Laboratory results from ChEMBL document CHEMBL1136821, “Modelling of carbonic anhydrase inhibitory activity of sulfonamides using molecular negentropy” (Bioorg Med Chem Lett, 2003).

Assays:
Carbonic anhydrase 1 = Carbonic anhydrase 1 (Homo sapiens, UniProt P00915); test: Inhibition of human carbonic anhydrase I (CAI)
Carbonic anhydrase 2 = Carbonic anhydrase 2 (Homo sapiens, UniProt P00918); test: Inhibition of human carbonic anhydrase II (CAII)
Carbonic anhydrase 4 = molecular target: T1, Carbonic anhydrase 4 (Bos taurus, UniProt Q95323); test: Inhibition of bovine carbonic anhydrase IV (CAIV)
T1 sequence (Q95323 whole entry): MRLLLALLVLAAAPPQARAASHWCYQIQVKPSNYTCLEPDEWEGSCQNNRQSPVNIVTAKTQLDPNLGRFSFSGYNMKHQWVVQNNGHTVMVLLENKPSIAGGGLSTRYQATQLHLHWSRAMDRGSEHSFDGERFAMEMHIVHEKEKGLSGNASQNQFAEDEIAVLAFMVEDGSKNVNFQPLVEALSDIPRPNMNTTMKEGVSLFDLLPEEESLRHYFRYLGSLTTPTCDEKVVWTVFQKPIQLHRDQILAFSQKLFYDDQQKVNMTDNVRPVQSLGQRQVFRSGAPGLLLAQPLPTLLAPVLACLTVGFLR

Sequence of Carbonic anhydrase 1 (P00915 whole entry): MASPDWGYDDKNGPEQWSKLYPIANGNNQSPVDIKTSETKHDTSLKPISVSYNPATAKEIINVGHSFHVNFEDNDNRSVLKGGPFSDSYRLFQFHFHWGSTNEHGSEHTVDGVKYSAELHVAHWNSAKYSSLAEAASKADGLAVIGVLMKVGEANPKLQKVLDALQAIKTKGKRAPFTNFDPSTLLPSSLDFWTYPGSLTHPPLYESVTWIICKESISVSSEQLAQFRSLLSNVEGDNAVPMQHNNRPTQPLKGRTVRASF

Ki (Carbonic anhydrase 1) [nM] | Ki (Carbonic anhydrase 2) [nM] | Ki (Carbonic anhydrase 4) [nM] | Compound
20000 | 250 | 305 | NS(=O)(=O)c1cccc(C(=O)c2cccc(C(=O)O)n2)c1
15500 | 132 | 170 | NS(=O)(=O)c1ccc(C(=O)c2cccc(C(=O)O)n2)cc1
620 | 44 | 79 | NS(=O)(=O)c1ccc(C(=O)c2cccc(C(=O)O)n2)c(Cl)c1
450 | 10 | 55 | NS(=O)(=O)c1cc(S(N)(=O)=O)c(NC(=O)c2cccc(C(=O)O)n2)c(Cl)c1NC(=O)c1cccc(C(=O)O)n1
– | – | 79 | NS(=O)(=O)c1ccc(CC(=O)c2cccc(C(=O)O)n2)cc1
6100 | – | 175 | Nc1c(S(N)(=O)=O)cc(S(N)(=O)=O)c(N)c1Cl
600 | 8.99 | 60 | NS(=O)(=O)c1cc(S(N)(=O)=O)c(C(=O)c2cccc(C(=O)O)n2)cc1Cl
2000 | 15 | 105 | NS(=O)(=O)c1ccc(CCON2C(=O)c3cccnc3C2=O)cc1
605 | – | 75 | NS(=O)(=O)c1ccc(C(=O)c2cccc(C(=O)O)n2)c(Br)c1
500 | 12 | 69 | NS(=O)(=O)c1cc(S(N)(=O)=O)c(C(=O)c2cccc(C(=O)O)n2)c(Cl)c1C(=O)c1cccc(C(=O)O)n1
540 | 10 | 46 | NS(=O)(=O)c1ccc(C(=O)c2cccc(C(=O)O)n2)c(F)c1
906 | 8.99 | 54 | NS(=O)(=O)c1ccc(CCC(=O)c2cccc(C(=O)O)n2)cc1
21000 | 280 | 310 | NS(=O)(=O)c1ccccc1C(=O)c1cccc(C(=O)O)n1
2040 | 20 | 120 | NS(=O)(=O)c1ccc(CON2C(=O)c3cccnc3C2=O)cc1
610 | 33 | 70 | NS(=O)(=O)c1ccc(C(=O)c2cccc(C(=O)O)n2)c(I)c1
21500 | – | 300 | NS(=O)(=O)c1ccc(NC(=O)c2cccc(C(=O)O)n2)cc1
